How the values were obtained:
[1] = target: T1, BCAT2 (Homo sapiens, UniProt O15382); test: BCAT2 in vitro cell inhibition using engineered A549 cells (KMV cell assay, 13C6-KMV by LC-MS/MS); assay type: cell-based; set-up: The result was an engineered A549 cell line that expressed endogenous BCAT2; endogenous in cells; host or cells: A549 cells with MUT and BCAT1 knocked out by CRISPR/CAS9; key to BCAT2 Cell Inhibition: A: less than or equal to 0.100 μM; B: greater than 0.100 and less than or equal to 0.500 μM; C: greater than 0.500 and less than or equal to 1.000 μM; d: greater than 1.000 μM; E: no fit; details: average where tested multiple times
T1 sequence (O15382 28-392): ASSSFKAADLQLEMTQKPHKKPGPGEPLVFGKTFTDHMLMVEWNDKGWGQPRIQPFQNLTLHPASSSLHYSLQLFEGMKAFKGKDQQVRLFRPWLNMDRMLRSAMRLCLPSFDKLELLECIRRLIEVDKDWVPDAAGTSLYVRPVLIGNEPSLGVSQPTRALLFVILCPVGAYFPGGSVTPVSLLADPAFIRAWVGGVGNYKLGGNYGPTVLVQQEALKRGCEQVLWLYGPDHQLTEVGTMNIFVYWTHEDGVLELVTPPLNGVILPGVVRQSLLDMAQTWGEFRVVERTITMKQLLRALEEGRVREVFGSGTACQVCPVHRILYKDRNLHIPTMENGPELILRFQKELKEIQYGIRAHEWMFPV

[2] = target: T1, BCAT2; test: BCAT2 in vitro enzyme inhibition assay (resazurin/diaphorase-coupled fluorescence); assay type: biochemical; details: average where tested multiple times
Summary of the method: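 Coupled fluorescence readout: glutamate formed from L-leucine/α-ketoglutarate transamination drives GDH/NAD/diaphorase reduction of resazurin (Ex 540/Em 590). Human BCAT2 was first exposed 1 h at room temperature to compound, top final 100 μM in 3-fold, 10-point series; substrate reaction ran 1 h before SDS quench, in technical duplicate with DMSO max and enzyme-free min controls.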

Compound | BCAT2 Cell Inhibition [1] | IC50 [2] | IC50 [1]
CC(C)Cc1nc2cnc(-n3cc(F)cn3)cc2n1[C@H]1CCC[C@@H](NC(=O)c2ncc(Cl)s2)[C@@H]1O [Example 231, 5-chloro-N-((1R,2S,3S)-3-(6-(4-fluoro-1H-pyrazol-1-yl)-2-isobutyl-1H-imidazo[4,5-c]pyridin-1-yl)-2-hydroxycyclohexyl)thiazole-2-carboxamide] | E | > 1000 nM | –
O=C(N[C@H]1CCC[C@@H](n2c(-c3ccccc3F)nc3cnc(O[C@@H]4CCOC4)cc32)C1)c1ncc(Cl)s1 [Example 266, 5-chloro-N-((1S,3R)-3-(2-(2-fluorophenyl)-6-(((R)-tetrahydrofuran-3-yl)oxy)-1H-imidazo[4,5-c]pyridin-1-yl)cyclohexyl)thiazole-2-carboxamide] | E | 100 to 500 nM | –
CO[C@@H]1C[C@@H](NC(=O)c2ncc(Cl)s2)C[C@@H](n2c(-c3ccccc3F)nc3cnc(-c4nc[nH]n4)cc32)C1 (single isomer, unassigned) [Example 219] | – | 100 to 500 nM | > 1000 nM
CS(=O)(=O)N1C[C@@H](NC(=O)c2ccc(Cl)s2)C[C@@H](n2c(-c3ccccc3F)nc3cnc(-c4nc[nH]n4)cc32)C1 [Example 459, 5-chloro-N-((3S,5R)-5-(2-(2-fluorophenyl)-6-(1H-1,2,4-triazol-3-yl)-1H-imidazo[4,5-c]pyridin-1-yl)-1-(methylsulfonyl)piperidin-3-yl)thiophene-2-carboxamide] | – | ≤ 100 nM | 100 to 500 nM
O=C(N[C@@H]1CCC[C@H](n2c(-c3ccccc3F)nc3cnc(-n4nccn4)cc32)[C@H]1O)c1ncc(Cl)s1 [Example 114, 5-chloro-N-((1R,2S,3S)-3-(2-(2-fluorophenyl)-6-(2H-1,2,3-triazol-2-yl)-1H-imidazo[4,5-c]pyridin-1-yl)-2-hydroxycyclohexyl)thiazole-2-carboxamide] | – | 100 to 500 nM | 100 to 500 nM
CN1C[C@@H](NC(=O)c2ccc(Cl)s2)C[C@@H](n2c(-c3ccccc3F)nc3cnc(-c4nc[nH]n4)cc32)C1 [Example 265, 5-chloro-N-((3S,5R)-5-(2-(2-fluorophenyl)-6-(1H-1,2,4-triazol-3-yl)-1H-imidazo[4,5-c]pyridin-1-yl)-1-methylpiperidin-3-yl)thiophene-2-carboxamide] | – | 100 to 500 nM | > 1000 nM
O=C(N[C@@H]1C[C@@H](O)C[C@H](n2c(-c3ccccc3F)nc3cnc(-c4nc[nH]n4)cc32)C1)c1ccc(Cl)s1 [Example 255, 5-chloro-N-((1S,3R,5R)-3-(2-(2-fluorophenyl)-6-(1H-1,2,4-triazol-3-yl)-1H-imidazo[4,5-c]pyridin-1-yl)-5-hydroxycyclohexyl)thiophene-2-carboxamide] | – | ≤ 100 nM | 100 to 500 nM
CC(C)Cc1nc2cnc(-c3nc[nH]n3)cc2n1[C@H]1CCC[C@@H](NC(=O)c2ncc(Cl)s2)[C@@H]1O [Example 251, 5-chloro-N-((1R,2S,3S)-2-hydroxy-3-(2-isobutyl-6-(1H-1,2,4-triazol-3-yl)-1H-imidazo[4,5-c]pyridin-1-yl)cyclohexyl)thiazole-2-carboxamide] | – | 100 to 500 nM | > 1000 nM
Cn1ccc(-c2nc3cnc(-n4ccnn4)cc3n2[C@@H]2CCC[C@H](NC(=O)c3ncc(C(F)F)s3)C2)n1 [Example 42, 5-(difluoromethyl)-N-((1S,3R)-3-(2-(1-methyl-1H-pyrazol-3-yl)-6-(1H-1,2,3-triazol-1-yl)-1H-imidazo[4,5-c]pyridin-1-yl)cyclohexyl)thiazole-2-carboxamide] | E | > 1000 nM | –
Cc1coc(-c2cc3c(cn2)nc(-c2ccccc2F)n3[C@H]2CCC[C@@H](NC(=O)c3ncc(Cl)s3)[C@@H]2O)n1 [Example 237, 5-chloro-N-((1R,2S,3S)-3-(2-(2-fluorophenyl)-6-(4-methyloxazol-2-yl)-1H-imidazo[4,5-c]pyridin-1-yl)-2-hydroxycyclohexyl)thiazole-2-carboxamide] | – | 100 to 500 nM | 500 to 1000 nM
CC(C)Cc1nc2cnc(N3CCC[C@@H]3C(C)(C)O)cc2n1[C@@H]1CCC[C@H](NC(=O)c2ncc(Cl)s2)C1 [Example 304, 5-chloro-N-((1S,3R)-3-(6-((R)-2-(2-hydroxypropan-2-yl)pyrrolidin-1-yl)-2-isobutyl-1H-imidazo[4,5-c]pyridin-1-yl)cyclohexyl)thiazole-2-carboxamide] | E | > 1000 nM | –
CO[C@@H]1C[C@@H](NC(=O)c2ncc(Cl)s2)C[C@@H](n2c(-c3ncccc3F)nc3cnc(-c4nc[nH]n4)cc32)C1 (single isomer, unassigned) [Example 443] | E | > 1000 nM | –
CO[C@@H]1C[C@@H](NC(=O)c2ncc(Cl)s2)C[C@@H](n2c(CC(C)C)nc3cnc(-c4ncccn4)cc32)C1 [Example 436, 5-chloro-N-((1S,3R,5R)-3-(2-isobutyl-6-(pyrimidin-2-yl)-1H-imidazo[4,5-c]pyridin-1-yl)-5-methoxycyclohexyl)thiazole-2-carboxamide] | E | 500 to 1000 nM | –
CC(C)Cc1nc2cnc(-n3cc(C(C)O)nn3)cc2n1[C@@H]1CCC[C@H](NC(=O)c2ncc(Cl)s2)C1 (stereo partly drawn) [Example 359, 5-chloro-N-((1S,3R)-3-(6-(4-(1-hydroxyethyl)-1H-1,2,3-triazol-1-yl)-2-isobutyl-1H-imidazo[4,5-c]pyridin-1-yl)cyclohexyl)thiazole-2-carboxamide] | E | 100 to 500 nM | –
O=C(N[C@@H]1C[C@@H](O)C[C@H](n2c(-c3ccccc3F)nc3cnc(F)cc32)C1)c1ncc(Cl)s1 [Example 275, 5-chloro-N-((1S,3R,5R)-3-(6-fluoro-2-(2-fluorophenyl)-1H-imidazo[4,5-c]pyridin-1-yl)-5-hydroxycyclohexyl)thiazole-2-carboxamide] | E | > 1000 nM | –
CO[C@@H]1C[C@@H](NC(=O)c2ncc(Cl)s2)C[C@@H](n2c(-c3ccccc3F)nc3cnc(N4CCC[C@H]4CO)cc32)C1 [Example 430, 5-chloro-N-((1S,3R,5R)-3-(2-(2-fluorophenyl)-6-((S)-2-(hydroxymethyl)pyrrolidin-1-yl)-1H-imidazo[4,5-c]pyridin-1-yl)-5-methoxycyclohexyl)thiazole-2-carboxamide] | – | > 1000 nM | > 1000 nM
CO[C@@H]1C[C@@H](NC(=O)c2ncc(Cl)s2)C[C@@H](n2c(CC(C)(C)C)nc3cnc(-c4ccccn4)cc32)C1 (single isomer, unassigned) [Example 441] | E | > 1000 nM | –
CCn1c(CO)nn(-c2cc3c(cn2)nc(CC(C)C)n3[C@@H]2CCC[C@H](NC(=O)c3ccc(Cl)s3)C2)c1=O [Example 373, 5-chloro-N-((1S,3R)-3-(6-(4-ethyl-3-(hydroxymethyl)-5-oxo-4,5-dihydro-1H-1,2,4-triazol-1-yl)-2-isobutyl-1H-imidazo[4,5-c]pyridin-1-yl)cyclohexyl)thiophene-2-carboxamide] | – | ≤ 100 nM | > 1000 nM
O=C(N[C@@H]1CCCC[C@H](n2c(-c3ccccc3F)nc3cnc(-c4nc[nH]n4)cc32)[C@H]1O)c1ccc(Cl)s1 [Example 404, 5-chloro-N-((1R,2S,3S)-3-(2-(2-fluorophenyl)-6-(1H-1,2,4-triazol-3-yl)-1H-imidazo[4,5-c]pyridin-1-yl)-2-hydroxycycloheptyl)thiophene-2-carboxamide] | – | 100 to 500 nM | 500 to 1000 nM
O=C(NN1CCCC(n2c(-c3ccccn3)nc3cnc(-n4nccn4)cc32)C1)c1ncc(C(F)F)s1 (centres unmarked) [Example 137, 5-(difluoromethyl)-N-(3-(2-(pyridin-2-yl)-6-(2H-1,2,3-triazol-2-yl)-1H-imidazo[4,5-c]pyridin-1-yl)piperidin-1-yl)thiazole-2-carboxamide] | E | > 1000 nM | –
COc1cccc(F)c1-c1nc2cnc(-c3nc[nH]n3)cc2n1[C@H]1CCCC[C@@H](NC(=O)c2ccc(Cl)s2)[C@@H]1O [Example 406, 5-chloro-N-((1R,2S,3S)-3-(2-(2-fluoro-6-methoxyphenyl)-6-(1H-1,2,4-triazol-3-yl)-1H-imidazo[4,5-c]pyridin-1-yl)-2-hydroxycycloheptyl)thiophene-2-carboxamide] | E | 500 to 1000 nM | –
CC(C)Cc1nc2cnc(-c3ccccc3CO)cc2n1[C@@H]1CCC[C@H](NC(=O)c2ncc(Cl)s2)C1 [Example 205, 5-chloro-N-((1S,3R)-3-(6-(2-(hydroxymethyl)phenyl)-2-isobutyl-1H-imidazo[4,5-c]pyridin-1-yl)cyclohexyl)thiazole-2-carboxamide] | E | > 1000 nM | –

From patent US20260159512A1, “BCAT2 INHIBITORS” (AGIOS PHARMACEUTICALS, INC., priority 2021, published 2026)
